According to ChEMBL document CHEMBL3044870, “Effect of clomazone on various market classes of dry beans” (Crop Prot, 2007):

Legend:
Type in all cases: organism-based
Conditions in all cases: in vivo, other
[1] = system: Phaseolus vulgaris; assay: Phytotoxicity against Phaseolus vulgaris (kidney beans) assessed as plant height at 2232 g a.i./ha applied pre-emergence 1 to 2 days post-planting measured on day 28 post-emergence (reference value: 37 cm)
[2] = system: Phaseolus vulgaris; assay: Phytotoxicity against Phaseolus vulgaris (brown beans) assessed as yield at 1116 g a.i./ha applied pre-emergence 1 to 2 days post-planting measured on day 42 post-emergence (reference value: 2.5 tons/ha)
[3] = system: Phaseolus vulgaris; assay: Phytotoxicity against Phaseolus vulgaris (brown beans) assessed as shoot dry weight at 1116 g a.i./ha applied pre-emergence 1 to 2 days post-planting measured on day 42 post-emergence (reference value: 149 g/m)
[4] = system: Phaseolus vulgaris; assay: Phytotoxicity against Phaseolus vulgaris (dry beans) assessed as visual crop injury at 2232 g a.i./ha applied pre-emergence 1 to 2 days post-planting measured on day 7 post-emergence relative to control
[5] = system: Phaseolus vulgaris; assay: Phytotoxicity against Phaseolus vulgaris (dry beans) assessed as visual crop injury at 1116 g a.i./ha applied pre-emergence 1 to 2 days post-planting measured on day 7 post-emergence relative to control
[6] = system: Phaseolus vulgaris; assay: Phytotoxicity against Phaseolus vulgaris (black beans) assessed as plant height at 1116 g a.i./ha applied pre-emergence 1 to 2 days post-planting measured on day 28 post-emergence (reference value: 34 cm)
[7] = system: Phaseolus vulgaris; assay: Phytotoxicity against Phaseolus vulgaris (dry beans) assessed as change in seed moisture content at 1116 to 2232 g a.i./ha applied pre-emergence 1 to 2 days post-planting relative to control
[8] = system: Phaseolus vulgaris; assay: Phytotoxicity against Phaseolus vulgaris (cranberry beans) assessed as shoot dry weight at 1116 g a.i./ha applied pre-emergence 1 to 2 days post-planting measured on day 42 post-emergence (reference value: 161 g/m)
[9] = system: Phaseolus vulgaris; assay: Phytotoxicity against Phaseolus vulgaris (white beans) assessed as visual crop injury at 1116 g a.i./ha applied pre-emergence 1 to 2 days post-planting measured on day 14 post-emergence relative to control
[10] = system: Phaseolus vulgaris; assay: Phytotoxicity against Phaseolus vulgaris (pinto beans) assessed as visual crop injury at 2232 g a.i./ha applied pre-emergence 1 to 2 days post-planting measured on day 14 post-emergence relative to control
[11] = system: Phaseolus vulgaris; assay: Phytotoxicity against Phaseolus vulgaris (pinto beans) assessed as yield at 1116 g a.i./ha applied pre-emergence 1 to 2 days post-planting measured on day 42 post-emergence (reference value: 3.1 tons/ha)
[12] = system: Phaseolus vulgaris; assay: Phytotoxicity against Phaseolus vulgaris (otebo beans) assessed as yield at 2232 g a.i./ha applied pre-emergence 1 to 2 days post-planting measured on day 42 post-emergence (reference value: 3.4 tons/ha)
[13] = system: Phaseolus vulgaris; assay: Phytotoxicity against Phaseolus vulgaris (kidney beans) assessed as yield at 1116 g a.i./ha applied pre-emergence 1 to 2 days post-planting measured on day 42 post-emergence (reference value: 2.3 tons/ha)
[14] = system: Phaseolus vulgaris; assay: Phytotoxicity against Phaseolus vulgaris (white beans) assessed as shoot dry weight at 2232 g a.i./ha applied pre-emergence 1 to 2 days post-planting measured on day 42 post-emergence (reference value: 175 g/m)
[15] = system: Phaseolus vulgaris; assay: Phytotoxicity against Phaseolus vulgaris (dry beans) assessed as visual crop injury at 1116 g a.i./ha applied pre-emergence 1 to 2 days post-planting measured on day 14 post-emergence relative to control
[16] = system: Phaseolus vulgaris; assay: Phytotoxicity against Phaseolus vulgaris (yellow eye beans) assessed as yield at 1116 g a.i./ha applied pre-emergence 1 to 2 days post-planting measured on day 42 post-emergence (reference value: 2.3 tons/ha)
[17] = system: Phaseolus vulgaris; assay: Phytotoxicity against Phaseolus vulgaris (brown beans) assessed as visual crop injury at 1116 g a.i./ha applied pre-emergence 1 to 2 days post-planting measured on day 14 post-emergence relative to control
[18] = system: Phaseolus vulgaris; assay: Phytotoxicity against Phaseolus vulgaris (cranberry beans) assessed as visual crop injury at 1116 g a.i./ha applied pre-emergence 1 to 2 days post-planting measured on day 14 post-emergence relative to control
[19] = system: Phaseolus vulgaris; assay: Phytotoxicity against Phaseolus vulgaris (black beans) assessed as plant height at 2232 g a.i./ha applied pre-emergence 1 to 2 days post-planting measured on day 28 post-emergence (reference value: 34 cm)
[20] = system: Phaseolus vulgaris; assay: Phytotoxicity against Phaseolus vulgaris (otebo beans) assessed as plant height at 1116 g a.i./ha applied pre-emergence 1 to 2 days post-planting measured on day 28 post-emergence (reference value: 38 cm)
[21] = system: Phaseolus vulgaris; assay: Phytotoxicity against Phaseolus vulgaris (otebo beans) assessed as visual crop injury at 1116 g a.i./ha applied pre-emergence 1 to 2 days post-planting measured on day 14 post-emergence relative to control
[22] = system: Phaseolus vulgaris; assay: Phytotoxicity against Phaseolus vulgaris (kidney beans) assessed as yield at 2232 g a.i./ha applied pre-emergence 1 to 2 days post-planting measured on day 42 post-emergence (reference value: 2.3 tons/ha)
[23] = system: Phaseolus vulgaris; assay: Phytotoxicity against Phaseolus vulgaris (pinto beans) assessed as shoot dry weight at 1116 g a.i./ha applied pre-emergence 1 to 2 days post-planting measured on day 42 post-emergence (reference value: 168 g/m)
[24] = system: Phaseolus vulgaris; assay: Phytotoxicity against Phaseolus vulgaris (pinto beans) assessed as visual crop injury at 1116 g a.i./ha applied pre-emergence 1 to 2 days post-planting measured on day 14 post-emergence relative to control
[25] = system: Phaseolus vulgaris; assay: Phytotoxicity against Phaseolus vulgaris (cranberry beans) assessed as visual crop injury at 2232 g a.i./ha applied pre-emergence 1 to 2 days post-planting measured on day 14 post-emergence relative to control
[26] = system: Phaseolus vulgaris; assay: Phytotoxicity against Phaseolus vulgaris (yellow eye beans) assessed as shoot dry weight at 1116 g a.i./ha applied pre-emergence 1 to 2 days post-planting measured on day 42 post-emergence (reference value: 162 g/m)
[27] = system: Phaseolus vulgaris; assay: Phytotoxicity against Phaseolus vulgaris (dry beans) assessed as visual crop injury at 2232 g a.i./ha applied pre-emergence 1 to 2 days post-planting measured on day 14 post-emergence relative to control
[28] = system: Phaseolus vulgaris; assay: Phytotoxicity against Phaseolus vulgaris (white beans) assessed as visual crop injury at 2232 g a.i./ha applied pre-emergence 1 to 2 days post-planting measured on day 14 post-emergence relative to control
[29] = system: Phaseolus vulgaris; assay: Phytotoxicity against Phaseolus vulgaris (kidney beans) assessed as plant height at 1116 g a.i./ha applied pre-emergence 1 to 2 days post-planting measured on day 28 post-emergence (reference value: 37 cm)
[30] = system: Phaseolus vulgaris; assay: Phytotoxicity against Phaseolus vulgaris (cranberry beans) assessed as plant height at 2232 g a.i./ha applied pre-emergence 1 to 2 days post-planting measured on day 28 post-emergence (reference value: 37 cm)
[31] = system: Phaseolus vulgaris; assay: Phytotoxicity against Phaseolus vulgaris (white beans) assessed as yield at 1116 g a.i./ha applied pre-emergence 1 to 2 days post-planting measured on day 42 post-emergence (reference value: 3 tons/ha)
[32] = system: Phaseolus vulgaris; assay: Phytotoxicity against Phaseolus vulgaris (yellow eye beans) assessed as plant height at 2232 g a.i./ha applied pre-emergence 1 to 2 days post-planting measured on day 28 post-emergence (reference value: 38 cm)

## CC1(C)CON(Cc2ccccc2Cl)C1=O [CLOMAZONE]
[1]
  Activity: 33 cm
[2]
  Crop_yield: 2.6 tons/ha
[3]
  Activity: 139 g/m
[4]
  Activity: 11%
[5]
  Activity: 5%
[6]
  Activity: 34 cm
[7]
  Activity: Non-toxic
[8]
  Activity: 150 g/m
[9]
  Activity: 2%
[10]
  Activity: 11%
[11]
  Crop_yield: 3.1 tons/ha
[12]
  Crop_yield: 3.2 tons/ha
[13]
  Crop_yield: 2.3 tons/ha
[14]
  Activity: 154 g/m
[15]
  Activity: 4%
[16]
  Crop_yield: 2.6 tons/ha
[17]
  Activity: 3%
[18]
  Activity: 6%
[19]
  Activity: 30 cm
[20]
  Activity: 37 cm
[21]
  Activity: 3%
[22]
  Crop_yield: 2.3 tons/ha
[23]
  Activity: 166 g/m
[24]
  Activity: 4%
[25]
  Activity: 14%
[26]
  Activity: 160 g/m
[27]
  Activity: 10%
[28]
  Activity: 6%
[29]
  Activity: 35 cm
[30]
  Activity: 32 cm
[31]
  Crop_yield: 3.1 tons/ha
[32]
  Activity: 32 cm
